Experimental data from BindingDB's records for doi:10.1021/ml400235c (Korea Research Institute of Technology, 2013).

Key:
[1] = Antagonist activity at PAR1 in washed human platelets assessed as inhibition of haTRAP-induced platelet aggregation preincubated for 1 hr followed by haTRAP addition measured for 10 mins by spectrophotometric analysis
[2] = Antagonist activity at PAR1 in human platelet rich plasma assessed as inhibition of haTRAP-induced platelet aggregation preincubated for 1 hr followed by haTRAP addition measured for 10 mins by spectrophotometric analysis

| Compound | IC50 [1] [nM] | IC50 [2] [nM] |
| --- | --- | --- |
| CN(C1C[C@@H]2CCCC[C@@H]2[C@H]1/C=C/c1ccc(-c2cccc(F)c2)cn1)S(C)(=O)=O (stereo not given in full) | 2.2 | 97 |
| CS(=O)(=O)NC1C[C@@H]2CCCC[C@@H]2[C@H]1/C=C/c1ccc(-c2cccc(F)c2)cn1 (stereo not given in full) | 140 | 3900 |
| CC(=O)N(C)C1C[C@@H]2CCCC[C@@H]2[C@H]1/C=C/c1ccc(-c2cccc(F)c2)cn1 (stereo not given in full) | 210 | 8900 |
| Fc1cccc(-c2ccc(/C=C/[C@@H]3[C@H]4CCCC[C@H]4CC34OCCO4)nc2)c1 | 410 | 4100 |
| CS(=O)(=O)OC1C[C@@H]2CCCC[C@@H]2[C@H]1/C=C/c1ccc(-c2cccc(F)c2)cn1 (stereo not given in full) | 6 | – |
| O=C1NCC2(C[C@@H]3CCCC[C@@H]3[C@H]2C=Cc2ccc(-c3cccc(F)c3)cn2)O1 (stereo not given in full) | 7.2 | 210 |
| CC1(OC(N)=O)C[C@@H]2CCCC[C@@H]2[C@H]1C=Cc1ccc(-c2cccc(F)c2)cn1 (stereo not given in full) | 2.9 | 100 |
| CCOC(=O)N[C@@H]1CC[C@@H]2[C@@H](C1)C[C@H]1C(=O)O[C@H](C)[C@H]1[C@H]2C=Cc1ccc(-c2cccc(F)c2)cn1 [Ethyl [(3aR,4aR,8aR,9aS)-9(S)-[(E)-2-[5-(3-fluorophenyl)-2-pyridinyl]ethenyl]dodecahydro-1(R)-methyl-3-oxonaphtho[2,3-c]furan-6(R)-yl]carbamate] | 1.5 | 120 |
